Tests used:
Assay in all cases: Test D pre-/postemergence plant response
Format in all cases: in vivo
[1] = system: bluegrass (annual bluegrass, Poa annua)
Method in brief: (§1)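 Ratings come from greenhouse-grown weeds in loam and sand treated pre- or postemergence (postemergence height 2 to 18 cm). Evaluation after 14–21 days, visual, relative to controls, on a 0–100 control scale.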

[2] = system: sowthistle (common sowthistle, Sonchus oleraceous)
Method in brief: as §1

[3] = system: nutsedge (purple nutsedge, Cyperus rotundus)
Method in brief: as §1

[4] = system: itchgrass (Rottboellia cochinchinensis)
Method in brief: as §1

[5] = system: green foxtail (Setaria viridis)
Method in brief: as §1

[6] = system: guineagrass (Panicum maximum)
Method in brief: as §1

[7] = system: johnsongrass (Sorghum halepense)
Method in brief: as §1

[8] = system: barnyardgrass (Echinochloa crus-galli)
Method in brief: as §1

[9] = system: goosegrass (Eleusine indica)
Method in brief: as §1

[10] = system: Russian thistle (Salsola kali); conditions: Preemergence, 16 g ai/ha; scale 0 to 100, 0 no effect, 100 complete control
Method in brief: as §1

[11] = system: mallow (common mallow, Malva sylvestris); conditions: Postemergence
Method in brief: as §1

[12] = system: purslane (common purslane, Portulaca oleracea)
Method in brief: as §1

[13] = system: ragweed (common ragweed, Ambrosia elatior)
Method in brief: as §1

[14] = system: signalgrass (broadleaf signalgrass, Brachiaria platyphylla)
Method in brief: as §1

[15] = system: quackgrass (Elytrigia repens)
Method in brief: as §1

[16] = system: dallisgrass (Paspalum dilatatum)
Method in brief: as §1

[17] = Postemergence, 16 g ai/ha, scale 0 to 100
[18] = Postemergence, 31 g ai/ha, scale 0 to 100 (0 no effect, 100 complete control)
[19] = Postemergence, 125 g ai/ha, scale 0 to 100 (0 no effect, 100 complete control)
[20] = Postemergence, 62 g ai/ha, scale 0 to 100 (0 no effect, 100 complete control)
[21] = Preemergence, 16 g ai/ha, scale 0 to 100, 0 no effect, 100 complete control
[22] = Preemergence, 31 g ai/ha, scale 0 to 100 (0 no effect, 100 complete control)
[23] = Preemergence, 62 g ai/ha, scale 0 to 100
[24] = Preemergence, 125 g ai/ha, scale 0 to 100
[25] = Postemergence, 31 g ai/ha, scale 0 to 100

## Cc1ccc(Cl)cc1-n1c(-c2ccccc2)ncc(C(=O)C2=C(O)CCCC2=O)c1=O [Compound 52]
[1]; [17]
  Plant response rating, Bluegrass: 15
[1]; [18]
  Plant response rating, Bluegrass: 25
[1]; [19]
  Plant response rating, Bluegrass: 35
[1]; [20]
  Plant response rating, Bluegrass: 35
[1]; [21]
  Plant response rating, Bluegrass: 0
[1]; [22]
  Plant response rating, Bluegrass: 0
[1]; [23]
  Plant response rating, Bluegrass: 0
[1]; [24]
  Plant response rating, Bluegrass: 20
[2]; [17]
  Plant response rating, Sowthistle: 80
[2]; [25]
  Plant response rating, Sowthistle: 95
[2]; [19]
  Plant response rating, Sowthistle: 100
[2]; [20]
  Plant response rating, Sowthistle: 98
[2]; [21]
  Plant response rating, Sowthistle: 0
[2]; [22]
  Plant response rating, Sowthistle: 80
[2]; [24]
  Plant response rating, Sowthistle: 100
[3]; [17]
  Plant response rating, Nutsedge, Purple: 0
[3]; [25]
  Plant response rating, Nutsedge, Purple: 20
[3]; [19]
  Plant response rating, Nutsedge, Purple: 40
[3]; [20]
  Plant response rating, Nutsedge, Purple: 35
[3]; [21]
  Plant response rating, Nutsedge, Purple: 0
[3]; [22]
  Plant response rating, Nutsedge, Purple: 5
[3]; [23]
  Plant response rating, Nutsedge, Purple: 30
[3]; [24]
  Plant response rating, Nutsedge, Purple: 40
[4]; [17]
  Plant response rating, Itchgrass: 25
[4]; [25]
  Plant response rating, Itchgrass: 50
[4]; [19]
  Plant response rating, Itchgrass: 65
[4]; [20]
  Plant response rating, Itchgrass: 65
[4]; [21]
  Plant response rating, Itchgrass: 0
[4]; [22]
  Plant response rating, Itchgrass: 0
[4]; [23]
  Plant response rating, Itchgrass: 0
[4]; [24]
  Plant response rating, Itchgrass: 5
[5]; [17]
  Plant response rating, Foxtail, Green: 70
[5]; [25]
  Plant response rating, Foxtail, Green: 70
[5]; [19]
  Plant response rating, Foxtail, Green: 95
[5]; [20]
  Plant response rating, Foxtail, Green: 85
[5]; [21]
  Plant response rating, Foxtail, Green: 0
[5]; [22]
  Plant response rating, Foxtail, Green: 0
[5]; [23]
  Plant response rating, Foxtail, Green: 0
[5]; [24]
  Plant response rating, Foxtail, Green: 15
[6]; [17]
  Plant response rating, Guineagrass: 50
[6]; [25]
  Plant response rating, Guineagrass: 70
[6]; [19]
  Plant response rating, Guineagrass: 75
[6]; [20]
  Plant response rating, Guineagrass: 75
[6]; [21]
  Plant response rating, Guineagrass: 0
[6]; [23]
  Plant response rating, Guineagrass: 50
[7]; [17]
  Plant response rating, Johnsongrass: 65
[7]; [25]
  Plant response rating, Johnsongrass: 75
[7]; [20]
  Plant response rating, Johnsongrass: 85
[7]; [21]
  Plant response rating, Johnsongrass: 0
[7]; [22]
  Plant response rating, Johnsongrass: 0
[7]; [23]
  Plant response rating, Johnsongrass: 75
[7]; [24]
  Plant response rating, Johnsongrass: 95
[8]; [17]
  Plant response rating, Barnyardgrass: 75
[8]; [18]
  Plant response rating, Barnyardgrass: 75
[8]; [19]
  Plant response rating, Barnyardgrass: 80
[8]; [20]
  Plant response rating, Barnyardgrass: 75
[8]; [21]
  Plant response rating, Barnyardgrass: 0
[8]; [22]
  Plant response rating, Barnyardgrass: 0
[8]; [23]
  Plant response rating, Barnyardgrass: 0
[8]; [24]
  Plant response rating, Barnyardgrass: 10
[9]; [17]
  Plant response rating, Goosegrass: 65
[9]; [25]
  Plant response rating, Goosegrass: 75
[9]; [19]
  Plant response rating, Goosegrass: 80
[9]; [20]
  Plant response rating, Goosegrass: 75
[9]; [21]
  Plant response rating, Goosegrass: 5
[9]; [22]
  Plant response rating, Goosegrass: 60
[9]; [23]
  Plant response rating, Goosegrass: 80
[9]; [24]
  Plant response rating, Goosegrass: 98
[10]
  Plant response rating, Russian Thistle: 0
[11]; 16 g ai/ha, scale 0 to 100
  Plant response rating, Mallow: 50
[11]; 31 g ai/ha, scale 0 to 100
  Plant response rating, Mallow: 65
[11]; 125 g ai/ha, scale 0 to 100 (0 no effect, 100 complete control)
  Plant response rating, Mallow: 75
[11]; 62 g ai/ha, scale 0 to 100 (0 no effect, 100 complete control)
  Plant response rating, Mallow: 65
[12]; [17]
  Plant response rating, Purslane: 65
[12]; [25]
  Plant response rating, Purslane: 65
[12]; [19]
  Plant response rating, Purslane: 75
[12]; [20]
  Plant response rating, Purslane: 65
[12]; [21]
  Plant response rating, Purslane: 0
[12]; [22]
  Plant response rating, Purslane: 60
[12]; [23]
  Plant response rating, Purslane: 90
[12]; [24]
  Plant response rating, Purslane: 100
[13]; [17]
  Plant response rating, Ragweed: 90
[13]; [25]
  Plant response rating, Ragweed: 95
[13]; [19]
  Plant response rating, Ragweed: 95
[13]; [20]
  Plant response rating, Ragweed: 95
[13]; [21]
  Plant response rating, Ragweed: 30
[13]; [22]
  Plant response rating, Ragweed: 50
[13]; [24]
  Plant response rating, Ragweed: 98
[14]; [17]
  Plant response rating, Signalgrass: 50
[14]; [25]
  Plant response rating, Signalgrass: 60
[14]; [19]
  Plant response rating, Signalgrass: 90
[14]; [20]
  Plant response rating, Signalgrass: 80
[14]; [21]
  Plant response rating, Signalgrass: 0
[14]; [22]
  Plant response rating, Signalgrass: 0
[14]; [24]
  Plant response rating, Signalgrass: 90
[15]; [17]
  Plant response rating, Quackgrass: 5
[15]; [25]
  Plant response rating, Quackgrass: 10
[15]; [19]
  Plant response rating, Quackgrass: 20
[15]; [20]
  Plant response rating, Quackgrass: 15
[15]; [21]
  Plant response rating, Quackgrass: 0
[15]; [22]
  Plant response rating, Quackgrass: 0
[15]; [24]
  Plant response rating, Quackgrass: 20
[16]; [17]
  Plant response rating, Dallisgrass: 60
[16]; [25]
  Plant response rating, Dallisgrass: 65
[16]; [19]
  Plant response rating, Dallisgrass: 75
[16]; [20]
  Plant response rating, Dallisgrass: 70
[16]; [21]
  Plant response rating, Dallisgrass: 5
[16]; [22]
  Plant response rating, Dallisgrass: 10
[16]; [23]
  Plant response rating, Dallisgrass: 50
[16]; [24]
  Plant response rating, Dallisgrass: 95

Reference: US8952024B2, “Herbicidal pyrimidone derivatives” (E I du Pont de Nemours and Company, priority 2009, dated 2015)
